Counter-ions that a name gives are not always drawn.
Experiments:
[1] = test system: NCI-H292 lung cancer cells; experiment: FDA drug screening, complete media vs cholesterol-free media without statin (TABLE 1); format: cell-based, human
[2] = test system: NCI-H292 lung cancer cells; experiment: FDA drug screening, complete media vs cholesterol-free media with simvastatin (TABLE 2); format: cell-based, human; conditions: for Cholesterol-free media + simvastatin (0.04 μM) / Complete Media: NCI-H292 cells
[3] = NCI-H292 cells, cholesterol-free media without statin, FDA drug library screen
[4] = NCI-H292 cells, complete media, FDA drug library screen
[5] = complete vs cholesterol-free media, >0 enhanced anti-cancer activity, about 0 neutral, <0 antagonist
[6] = cholesterol-free media with simvastatin 0.04 μM, FDA drug library screen (TABLE 2)
[7] = complete media, FDA drug library screen (TABLE 2)
[8] = complete media minus cholesterol-free media + simvastatin (0.04 μM), >0 enhanced anti-cancer activity, about 0 neutral, <0 antagonist
[9] = NCI-H292 cells, cholesterol-free media without statin
[10] = complete vs cholesterol-free media, greater than 0 enhanced anti-cancer activity, about 0 neutral, below 0 antagonists
[11] = drug in cholesterol-free media with simvastatin 0.04 μM
[12] = complete media vs cholesterol-free media + simvastatin (0.04 μM), >0 enhanced anti-cancer activity, about 0 neutral, <0 antagonist
[13] = Complete minus Cholesterol-free, >0 enhanced anti-cancer activity, about 0 neutral, <0 antagonist
[14] = FDA drug library screen, cholesterol-free media with simvastatin 0.04 μM
[15] = FDA drug library screen, complete media
[16] = Complete minus Cholesterol-free, greater than 0 enhanced anti-cancer activity, about 0 neutral, below 0 antagonists
[17] = NCI-H292 cells in cholesterol-free media without statin
[18] = NCI-H292 cells in complete media
[19] = cholesterol-free media with simvastatin 0.04 μM, cell growth value in FDA drug screen
[20] = complete media, cell growth value in FDA drug screen
[21] = complete media minus cholesterol-free media + simvastatin, >0 enhanced anti-cancer activity, about 0 neutral, <0 antagonist
[22] = Complete minus Cholesterol-free, greater than 0 enhanced anti-cancer activity, about 0 neutral, below 0 antagonist
[23] = NCI-H292 cells, FDA drug library screen, cholesterol-free media without statin
[24] = NCI-H292 cells, FDA drug library screen, complete media
[25] = Complete minus Cholesterol-free, […]

Molecule: COc1cccc2c1C(=O)c1c(O)c3c(c(O)c1C2=O)C[C@@](O)(C(=O)CO)C[C@@H]3O[C@H]1C[C@H](N)[C@H](O)[C@H](C)O1 [Doxorubicin (hydrochloride)]
- Cholesterol-free [1, 3]: −0.08252
- Complete [1, 4]: −0.006007
- Difference [1, 5]: 0.08
- Cholesterol-free media + simvastatin (0.04 μM) [2, 6]: 0.09054
- Complete Media [2, 7]: 0.01994
- Difference [2, 8]: −0.07

Molecule: Cc1cccc(C)c1NC(=O)C(C)N (centres unmarked) [Tocainide (hydrochloride)]
- Cholesterol-free [1, 9]: 1.376
- Complete ([1]; NCI-H292 cells, complete media): 0.9544
- Difference [1, 10]: −0.42
- Cholesterol-free media + simvastatin (0.04 μM) [2, 11]: 1.258
- Complete Media ([2]; drug in complete media): 1.006
- Difference [2, 12]: −0.25

Molecule: COCCOC(=O)C1=C(C)NC(C)=C(C(=O)OC(C)C)C1c1cccc([N+](=O)[O-])c1 (centres unmarked) [Nimodipine]
- Cholesterol-free [1, 9]: 1.269
- Complete ([1]; NCI-H292 cells, complete media): 0.8907
- Difference [1, 10]: −0.38
- Cholesterol-free media + simvastatin (0.04 μM) [2, 6]: 1.215
- Complete Media [2, 7]: 1.187
- Difference [2, 8]: −0.03

Molecule: CCCCCCCCCCCCCCCCOP(=O)([O-])OCC[N+](C)(C)C [Miltefosine]
- Difference [1, 13]: −0.07
- Cholesterol-free [1, 3]: 1.003
- Complete [1, 4]: 0.9345
- Cholesterol-free media + simvastatin (0.04 μM) [2, 11]: 1.237
- Complete Media ([2]; drug in complete media): 0.9911
- Difference [2, 12]: −0.25

Molecule: CCCNC(C)C(=O)Nc1c(C)csc1C(=O)OC (centres unmarked) [Articaine (hydrochloride)]
- Cholesterol-free [1, 3]: 1.045
- Complete [1, 4]: 1.285
- Difference [1, 5]: 0.24
- Cholesterol-free media + simvastatin (0.04 μM) [2, 14]: 0.9336
- Complete Media [2, 15]: 0.8247
- Difference [2, 12]: −0.11

Molecule: CCc1oc2ccccc2c1C(=O)c1cc(Br)c(O)c(Br)c1 [Benzbromarone]
- Difference [1, 16]: −0.92
- Cholesterol-free [1, 17]: 1.902
- Complete [1, 18]: 0.9837
- Cholesterol-free media + simvastatin (0.04 μM) [2, 19]: 0.9582
- Complete Media [2, 20]: 0.9819
- Difference [2, 21]: 0.02

Molecule: Cc1[nH]c2ccccc2c1CCNCc1ccc(/C=C/C(=O)NO)cc1 [Panobinostat]
- Difference [1, 13]: −0.03
- Cholesterol-free [1, 3]: −0.004474
- Complete [1, 4]: −0.02997
- Cholesterol-free media + simvastatin (0.04 μM) [2, 6]: 0.008426
- Complete Media [2, 7]: −0.004725
- Difference [2, 8]: −0.01

Molecule: CC(C)c1ccc2oc3nc(N)c(C(=O)O)cc3c(=O)c2c1 [Amlexanox]
- Cholesterol-free [1, 9]: 1.264
- Complete ([1]; NCI-H292 cells, complete media): 0.8551
- Difference [1, 10]: −0.41
- Cholesterol-free media + simvastatin (0.04 μM) [2, 14]: 0.7766
- Complete Media [2, 15]: 1.161
- Difference [2, 21]: 0.38

Molecule: CCOc1ccc(Cc2cc([C@@H]3O[C@H](CO)[C@@H](O)[C@H](O)[C@H]3O)ccc2Cl)cc1 [Dapagliflozin]
- Difference [1, 22]: −0.18
- Cholesterol-free [1, 23]: 1.052
- Complete [1, 24]: 0.875
- Cholesterol-free media + simvastatin (0.04 μM) ([2]; FDA library drug in cholesterol-free media with simvastatin 0.04 μM): 1.024
- Complete Media ([2]; FDA library drug in complete media): 0.6919
- Difference [2, 12]: −0.33

Molecule: CC(=O)[C@H]1CC[C@H]2[C@@H]3C[C@H](C)C4=CC(=O)CC[C@]4(C)[C@H]3[C@@H](O)C[C@]12C [Medrysone]
- Cholesterol-free [1, 3]: 0.895
- Complete [1, 4]: 1.283
- Difference [1, 5]: 0.39
- Cholesterol-free media + simvastatin (0.04 μM) [2, 11]: 1.51
- Complete Media ([2]; drug in complete media): 1.254
- Difference [2, 12]: −0.26

Molecule: CCc1cccc2c3c([nH]c12)C(CC)(CC(=O)O)OCC3 (centres unmarked) [Etodolac]
- Cholesterol-free [1, 9]: 1.251
- Complete ([1]; NCI-H292 cells, complete media): 0.9193
- Difference [1, 10]: −0.33
- Cholesterol-free media + simvastatin (0.04 μM) [2, 14]: 0.9939
- Complete Media [2, 15]: 1.145
- Difference [2, 21]: 0.15

Molecule: O=S(=O)(O)CCS [Mesna]
- Difference [1, 13]: −0.29
- Cholesterol-free [1, 9]: 1.145
- Complete ([1]; NCI-H292 cells, complete media): 0.8536
- Cholesterol-free media + simvastatin (0.04 μM) [2, 14]: 1.227
- Complete Media [2, 15]: 1.122
- Difference [2, 12]: −0.10

Molecule: CC1(C)[C@@H](O)CC[C@]2(C)[C@H]3C(=O)C=C4[C@@H]5C[C@@](C)(C(=O)O)CC[C@]5(C)CC[C@@]4(C)[C@]3(C)CC[C@@H]12 [18β-Glycyrrhetinic acid]
- Difference [1, 22]: −0.09
- Cholesterol-free [1, 23]: 1.192
- Complete [1, 24]: 1.102
- Cholesterol-free media + simvastatin (0.04 μM) [2, 14]: 0.8991
- Complete Media [2, 15]: 0.8018
- Difference [2, 12]: −0.10

Molecule: CS(=O)(=O)c1ccc(C2=C(c3ccccc3)C(=O)OC2)cc1 [Rofecoxib]
- Cholesterol-free [1, 3]: 1.041
- Difference [1, 5]: 0.11
- Cholesterol-free media + simvastatin (0.04 μM) [2, 14]: 1.252
- Difference [2, 12]: −0.11

Molecule: C#C[C@]1(O)CC[C@H]2[C@@H]3CCc4cc(OC5CCCC5)ccc4[C@H]3CC[C@@]21C [Quinestrol]
- Cholesterol-free [1, 9]: 1.478
- Complete ([1]; NCI-H292 cells, complete media): 1.012
- Difference [1, 10]: −0.47
- Cholesterol-free media + simvastatin (0.04 μM) [2, 6]: 0.01915
- Complete Media [2, 7]: 0.02153
- Difference [2, 8]: 0.00

Molecule: Nc1nc(NC2CC2)c2ncn([C@H]3C=C[C@@H](CO)C3)c2n1 [Abacavir]
- Cholesterol-free [1, 3]: 0.6425
- Complete [1, 4]: 1.2
- Difference [1, 5]: 0.56
- Cholesterol-free media + simvastatin (0.04 μM) [2, 14]: 1.851
- Complete Media [2, 15]: 2.026
- Difference [2, 21]: 0.18

Molecule: COc1ccccc1N1CCN(CCCNc2cc(=O)n(C)c(=O)n2C)CC1 [Urapidil]
- Difference [1, 16]: −0.56
- Cholesterol-free [1, 17]: 1.658
- Complete [1, 18]: 1.095
- Cholesterol-free media + simvastatin (0.04 μM) [2, 14]: 1.097
- Complete Media [2, 15]: 1.271
- Difference [2, 21]: 0.17

Molecule: Isoconazole (nitrate)
- Difference [1, 25]: −0.15
- Cholesterol-free [1, 23]: 1.53
- Complete [1, 24]: 1.383
- Cholesterol-free media + simvastatin (0.04 μM) [2, 14]: 0.3001
- Complete Media [2, 15]: 0.7337
- Difference ([2]; complete media minus cholesterol-free media + simvastatin, […]): 0.43

Molecule: C[C@@H]1O[C@@H](O[C@H]2C[C@@H](O)[C@]3(CO)[C@H]4[C@H](O)C[C@]5(C)[C@@H](C6=CC(=O)OC6)CC[C@]5(O)[C@@H]4CC[C@]3(O)C2)[C@H](O)[C@H](O)[C@H]1O.O.O.O.O.O.O.O.O [Ouabain (Octahydrate)]
- Difference [1, 25]: 0.01
- Cholesterol-free [1, 3]: −0.009774
- Complete [1, 4]: −0.0006686
- Cholesterol-free media + simvastatin (0.04 μM) [2, 6]: 0.0005446
- Complete Media [2, 7]: −0.01106
- Difference ([2]; complete media minus cholesterol-free media + simvastatin (0.04 μM), […]): −0.01

Molecule: CC(O)(P(=O)(O)O)P(=O)(O)O [Etidronic acid]
- Cholesterol-free [1, 9]: 1.196
- Complete ([1]; NCI-H292 cells, complete media): 0.8527
- Difference [1, 10]: −0.34
- Cholesterol-free media + simvastatin (0.04 μM) [2, 6]: 0.8968
- Complete Media [2, 7]: 0.9014
- Difference [2, 8]: 0.00

Molecule: CCCCc1oc2ccc(NS(C)(=O)=O)cc2c1C(=O)c1ccc(OCCCN(CCCC)CCCC)cc1 [Dronedarone (Hydrochloride)]
- Cholesterol-free [1, 3]: 0.4604
- Difference [1, 5]: 0.28
- Complete Media [2, 20]: 0.8231
- Difference [2, 21]: 0.06

Molecule: N=C(N)N [Guanidine (hydrochloride)]
- Cholesterol-free [1, 3]: 0.9919
- Complete [1, 4]: 1.237
- Difference [1, 5]: 0.24
- Cholesterol-free media + simvastatin (0.04 μM) [2, 11]: 1.136
- Complete Media ([2]; drug in complete media): 0.9286
- Difference [2, 12]: −0.21

Molecule: COC(=O)[C@H]1[C@H]2C[C@@H]3c4[nH]c5cc(OC)ccc5c4CCN3C[C@H]2C[C@@H](OC(=O)c2cc(OC)c(OC)c(OC)c2)[C@@H]1OC [Reserpine]
- Difference [1, 13]: −0.28
- Cholesterol-free [1, 9]: 1.042
- Complete ([1]; NCI-H292 cells, complete media): 0.7591
- Cholesterol-free media + simvastatin (0.04 μM) [2, 19]: 0.8906
- Complete Media [2, 20]: 0.9102
- Difference [2, 21]: 0.02

Molecule: O=C(O)[C@H]1O[C@@H](Oc2cc3oc(-c4ccccc4)cc(=O)c3c(O)c2O)[C@H](O)[C@@H](O)[C@@H]1O [Baicalin]
- Difference [1, 13]: −0.04
- Cholesterol-free [1, 3]: 1.064
- Complete [1, 4]: 1.025
- Cholesterol-free media + simvastatin (0.04 μM) [2, 11]: 1.298
- Complete Media ([2]; drug in complete media): 1.093
- Difference [2, 12]: −0.20

Molecule: C[C@@H]1[C@H](O)[C@@H](C)/C=C/C=C/C=C/C=C/C=C/C=C/C=C/[C@H](O[C@@H]2O[C@H](C)[C@@H](O)[C@H](N)[C@@H]2O)C[C@@H]2O[C@](O)(C[C@@H](O)C[C@@H](O)[C@H](O)CC[C@@H](O)C[C@@H](O)CC(=O)O[C@H]1C)C[C@H](O)[C@H]2C(=O)O [Amphotericin B]
- Difference [1, 13]: 0.05
- Cholesterol-free [1, 3]: 1.082
- Complete [1, 4]: 1.128
- Cholesterol-free media + simvastatin (0.04 μM) [2, 11]: 1.212
- Complete Media ([2]; drug in complete media): 0.9521
- Difference [2, 12]: −0.26

Molecule: COc1cc([C@@H]2c3cc4c(cc3[C@@H](O[C@@H]3O[C@@H]5CO[C@@H](C)O[C@H]5[C@H](O)[C@H]3O)[C@H]3COC(=O)[C@H]23)OCO4)cc(OC)c1OP(=O)(O)O [Etoposide phosphate]
- Difference [1, 22]: −0.10
- Cholesterol-free [1, 23]: 0.7876
- Complete [1, 24]: 0.6917
- Cholesterol-free media + simvastatin (0.04 μM) [2, 11]: 0.9468
- Complete Media ([2]; drug in complete media): 0.7461
- Difference [2, 12]: −0.20

Molecule: O=C(Nc1ccc(O)cc1)c1ccccc1O [Osalmid]
- Cholesterol-free [1, 3]: 1.209
- Complete [1, 4]: 1.432
- Difference [1, 5]: 0.22
- Cholesterol-free media + simvastatin (0.04 μM) [2, 6]: 0.9033
- Complete Media [2, 7]: 0.8951
- Difference [2, 8]: −0.01

Source: US20250144067A1, “PERSONALIZED STARVATION THERAPY FOR CANCER” (Faeth Therapeutics, Inc., priority 2021, published 2025)
